Biological target: T1, Full length human recombinant HDAC6 protein (Homo sapiens, UniProt Q9UBN7)
T1 sequence (Q9UBN7 1-1215): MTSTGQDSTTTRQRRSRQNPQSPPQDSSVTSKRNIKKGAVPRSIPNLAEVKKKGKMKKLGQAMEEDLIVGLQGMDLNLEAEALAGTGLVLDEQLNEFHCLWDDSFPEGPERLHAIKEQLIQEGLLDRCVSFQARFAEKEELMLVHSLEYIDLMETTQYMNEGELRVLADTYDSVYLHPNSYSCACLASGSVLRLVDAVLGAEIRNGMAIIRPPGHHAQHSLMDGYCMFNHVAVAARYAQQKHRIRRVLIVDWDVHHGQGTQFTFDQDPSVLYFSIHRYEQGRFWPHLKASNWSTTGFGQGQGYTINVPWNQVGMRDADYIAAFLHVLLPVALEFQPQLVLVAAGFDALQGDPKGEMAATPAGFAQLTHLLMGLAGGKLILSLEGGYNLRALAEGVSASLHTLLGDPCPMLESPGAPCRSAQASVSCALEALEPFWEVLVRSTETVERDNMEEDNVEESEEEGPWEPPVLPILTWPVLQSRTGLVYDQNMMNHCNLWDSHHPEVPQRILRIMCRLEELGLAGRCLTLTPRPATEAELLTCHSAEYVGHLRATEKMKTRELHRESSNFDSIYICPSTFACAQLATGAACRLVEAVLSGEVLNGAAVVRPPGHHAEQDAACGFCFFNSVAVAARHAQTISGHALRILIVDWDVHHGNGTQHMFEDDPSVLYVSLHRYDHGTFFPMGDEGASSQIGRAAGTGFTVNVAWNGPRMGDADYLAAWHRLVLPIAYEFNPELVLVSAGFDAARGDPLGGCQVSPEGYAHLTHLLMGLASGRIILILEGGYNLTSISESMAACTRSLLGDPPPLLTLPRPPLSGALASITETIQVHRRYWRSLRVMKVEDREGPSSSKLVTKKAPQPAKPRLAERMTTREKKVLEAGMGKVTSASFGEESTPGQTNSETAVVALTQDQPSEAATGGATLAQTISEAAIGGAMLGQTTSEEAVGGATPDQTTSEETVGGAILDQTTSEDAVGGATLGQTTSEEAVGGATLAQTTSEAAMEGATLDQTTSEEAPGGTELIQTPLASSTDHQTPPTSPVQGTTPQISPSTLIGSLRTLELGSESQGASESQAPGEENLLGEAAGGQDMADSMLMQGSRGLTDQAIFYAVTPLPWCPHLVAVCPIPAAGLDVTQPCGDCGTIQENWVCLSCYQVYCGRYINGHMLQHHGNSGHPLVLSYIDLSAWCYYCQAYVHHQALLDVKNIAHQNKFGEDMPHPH
Assay: In vitro histone deacetylase assay: enzymatic HDAC6 electrophoretic mobility shift assay
Format: biochemical
Details: 1 nM enzyme, 2 μM peptide substrate RHKK(Ac)-NH2, 25° C., 12 concentrations; read-out: Inhibitory Concentration (IC50) Values against HDAC6, Activity Range
Procedure: The enzymatic HDAC6 assay was performed using electrophoretic mobility shift assay. […] The enzymatic reactions were assembled in 384 well plates in a total volume of 25 μL in a reaction buffer composing: 100 mM HEPES, pH7.5, 25 mM KCl, 0.1% bovine serum albumin, 0.01% Triton X-100, 1% DMSO (from compounds) 2 μM of the fluorescently labeled peptide substrate and enzyme. The enzyme was added at a final concentration of 1 nM. The peptide substrate RHKK(Ac)—NH2 was used. The compounds were tested at 12 concentrations spaced by 3× dilution intervals. Negative control samples ([…] in the absence of inhibitor) and positive control samples (100%-inhibition) were assembled in replicates of four in each assay plate. The reactions were incubated at 25° C. and quenched by the addition of 45 μL of termination buffer (100 mM HEPES, pH 7.5, 0.01% Triton X-100, 0.05% SDS).
The terminated assay plates were analyzed on LabChip® 3000 microfluidic electrophoresis instrument (Perkin Elmer/Caliper Life Sciences). The fluorescence intensity of the electrophoretically separated de-acetylated product and substrate peptide was measured. Activity in each sample was determined as the product to sum ratio (PSR): P/(S+P), where P is the peak height of the product peptide and S is the peak height of the substrate peptide. Percent inhibition (Pinh) is determined using the following equation:
Pinh=(PSR0%−PSRinh)/(PSR0%−PSR100%)*100, where PSRinh is the product sum ratio in the presence of inhibitor, PSR0% is the average product sum ration in the absence of inhibitor and PSR100% is the average product sum ratio in 100%-inhibition control samples. The IC50 values of inhibitors were determined by fitting the %-inhibition curves with 4 parameter dose-response model using XLfit 4 software.

| SMILES | IC50 [nM] |
| --- | --- |
| C[C@H]1COc2cc(C(=O)NO)ccc2CN1C(=O)C1CCC(OC(F)(F)F)CC1 (single isomer, unassigned) | ≤ 100 |
| O=C(NO)c1ccc2c(c1)OCCN(C(=O)C1(c3ccccc3Cl)CC1)C2 [4-(1-(2-chlorophenyl)cyclopropane-1-carbonyl)-N-hydroxy-2,3,4,5-tetrahydrobenzo[f][1,4]oxazepine-8-carboxamide] | ≤ 100 |
| CC(C)C(=O)N1CCOc2cc(C(=O)NO)ccc2C1 [N-hydroxy-4-isobutyryl-2,3,4,5-tetrahydrobenzo[f][1,4]oxazepine-8-carboxamide] | ≤ 100 |
| CC1(C(=O)N2Cc3ccc(C(=O)NO)cc3OCC2(C)C)CCC1 [N-hydroxy-3,3-dimethyl-4-(1-methylcyclobutane-1-carbonyl)-2,3,4,5-tetrahydrobenzo[f][1,4]oxazepine-8-carboxamide] | > 500 |
| C[C@H]1COc2cc(C(=O)NO)ccc2CN1C(=O)C1CCOCC1 [(S)-N-hydroxy-3-methyl-4-(tetrahydro-2H-pyran-4-carbonyl)-2,3,4,5-tetrahydrobenzo[f][1,4]oxazepine-8-carboxamide] | ≤ 100 |
| CC(C)[C@@H]1c2ccc(C(=O)NO)cc2OCCN1C(=O)C1CCOCC1 [(R)-N-hydroxy-5-isopropyl-4-(tetrahydro-2H-pyran-4-carbonyl)-2,3,4,5-tetrahydrobenzo[f][1,4]oxazepine-8-carboxamide] | > 500 |
| C[C@H]1c2ccc(C(=O)NO)cc2OCCN1C(=O)[C@H]1CCOC1 [(S)-N-hydroxy-5-methyl-4-((S)-tetrahydrofuran-3-carbonyl)-2,3,4,5-tetrahydrobenzo[f][1,4]oxazepine-8-carboxamide] | ≤ 100 |
| CC(C)(C)OC(=O)N1CCC2(CCC(C(=O)N3CCOc4cc(C(=O)NO)ccc4C3)C2)CC1 (stereo not drawn) [tert-butyl 2-(8-(hydroxycarbamoyl)-2,3,4,5-tetrahydrobenzo[f][1,4]oxazepine-4-carbonyl)-8-azaspiro[4.5]decane-8-carboxylate] | 100 to 500 |
| O=C(NO)c1ccc2c(c1)OCCN(C(=O)[C@H]1CCOC1)C2 [(S)-N-hydroxy-4-(tetrahydrofuran-3-carbonyl)-2,3,4,5-tetrahydrobenzo[f][1,4]oxazepine-8-carboxamide] | ≤ 100 |
| COC1(C(=O)N2Cc3ccc(C(=O)NO)cc3OC[C@@H]2C)CC1 [(S)-N-hydroxy-4-(1-methoxycyclopropane-1-carbonyl)-3-methyl-2,3,4,5-tetrahydrobenzo[f][1,4]oxazepine-8-carboxamide] | ≤ 100 |
| COCC1(C(=O)N2Cc3ccc(C(=O)NO)cc3OC[C@@H]2C)CCOCC1 [(S)-N-hydroxy-4-(4-(methoxymethyl)tetrahydro-2H-pyran-4-carbonyl)-3-methyl-2,3,4,5-tetrahydrobenzo[f][1,4]oxazepine-8-carboxamide] | ≤ 100 |
| O=C(NO)c1ccc2c(c1)OCCN(C(=O)C1CCC(F)(F)CC1)C2 [4-(4,4-difluorocyclohexane-1-carbonyl)-N-hydroxy-2,3,4,5-tetrahydrobenzo[f][1,4]oxazepine-8-carboxamide] | 100 to 500 |
| O=C(NO)c1cnc2c(n1)OCCN(C(=O)C1CCCCC1)C2 [8-(cyclohexanecarbonyl)-N-hydroxy-6,7,8,9-tetrahydropyrazino[2,3-f][1,4]oxazepine-3-carboxamide] | ≤ 100 |
| CCC1(C(=O)N2CCOc3cc(C(=O)NO)ccc3C2)COC1 [4-(3-ethyloxetane-3-carbonyl)-N-hydroxy-2,3,4,5-tetrahydrobenzo[f][1,4]oxazepine-8-carboxamide] | ≤ 100 |
| O=C(NO)c1ccc2c(c1)O[C@@H]1C[C@H]2N(C(=O)C2CCOCC2)C1 [(2R,5R)-N-hydroxy-4-(tetrahydro-2H-pyran-4-carbonyl)-2,3,4,5-tetrahydro-2,5-methanobenzo[f][1,4]oxazepine-8-carboxamide] | 100 to 500 |
| O=C(NO)c1ccc2c(c1)OCCN(C(=O)C1CC3(CCNCC3)c3ccccc31)C2 (stereo not drawn) [4-(2,3-dihydrospiro[indene-1,4′-piperidine]-3-carbonyl)-N-hydroxy-2,3,4,5-tetrahydrobenzo[f][1,4]oxazepine-8-carboxamide] | 100 to 500 |
| O=C(NO)c1ccc2c(c1)OCCN(C(=O)CCC(F)(F)F)C2 [N-hydroxy-4-(4,4,4-trifluorobutanoyl)-2,3,4,5-tetrahydrobenzo[f][1,4]oxazepine-8-carboxamide] | 100 to 500 |
| O=C(NO)c1ccc2c(c1)OCCN(C(=O)C1CCOC1)C2 (stereo not drawn) [N-hydroxy-4-(tetrahydrofuran-3-carbonyl)-2,3,4,5-tetrahydrobenzo[f][1,4]oxazepine-8-carboxamide] | ≤ 100 |
| CC(=O)N1Cc2ccc(C(=O)NO)cc2OC[C@@H]1C(C)C [(S)-4-acetyl-N-hydroxy-3-isopropyl-2,3,4,5-tetrahydrobenzo[f][1,4]oxazepine-8-carboxamide] | 100 to 500 |
| O=C(NO)c1ccc2c(c1)O[C@H]1C[C@@H]2N(C(=O)C2CCOCC2)C1 [(2S,5S)-N-hydroxy-4-(tetrahydro-2H-pyran-4-carbonyl)-2,3,4,5-tetrahydro-2,5-methanobenzo[f][1,4]oxazepine-8-carboxamide] | > 500 |
| CC(CC(=O)N1CCOc2cc(C(=O)NO)ccc2C1)c1ccccc1 (stereo not drawn) [N-hydroxy-4-(3-phenylbutanoyl)-2,3,4,5-tetrahydrobenzo[f][1,4]oxazepine-8-carboxamide] | 100 to 500 |
| Cn1ccc(C(=O)N2CCOc3cc(C(=O)NO)ccc3C2)n1 [N-hydroxy-4-(1-methyl-1H-pyrazole-3-carbonyl)-2,3,4,5-tetrahydrobenzo[f][1,4]oxazepine-8-carboxamide] | ≤ 100 |
| O=C(NO)c1ccc2c(c1)OCCN(C(=O)C(OC1CCOCC1)c1ccccc1)C2 (stereo not drawn) [N-hydroxy-4-(2-phenyl-2-((tetrahydro-2H-pyran-4-yl)oxy)acetyl)-2,3,4,5-tetrahydrobenzo[f][1,4]oxazepine-8-carboxamide] | > 500 |
| O=C(NO)c1ccc2c(c1)OCCN(C(=O)C1(Cn3cccn3)CC1)C2 [4-(1-((1H-pyrazol-1-yl)methyl)cyclopropane-1-carbonyl)-N-hydroxy-2,3,4,5-tetrahydrobenzo[f][1,4]oxazepine-8-carboxamide] | ≤ 100 |
| COc1ccc(CC(=O)N2CC(=O)Nc3ccc(C(=O)NO)cc3C2)cc1 [N-hydroxy-4-(2-(4-methoxyphenyl)acetyl)-2-oxo-2,3,4,5-tetrahydro-1H-benzo[e][1,4]diazepine-7-carboxamide] | > 500 |
| CC1CC(C(=O)N2Cc3ccc(C(=O)NO)cc3OC[C@@H]2C)CC(C)O1 (stereo partly drawn) [(3S)-4-(2,6-dimethyltetrahydro-2H-pyran-4-carbonyl)-N-hydroxy-3-methyl-2,3,4,5-tetrahydrobenzo[f][1,4]oxazepine-8-carboxamide] | ≤ 100 |
| C[C@H]1COc2cc(C(=O)NO)ccc2CN1C(=O)C(C)(C)Cc1ccc(F)cc1 [(S)-4-(3-(4-fluorophenyl)-2,2-dimethylpropanoyl)-N-hydroxy-3-methyl-2,3,4,5-tetrahydrobenzo[f][1,4]oxazepine-8-carboxamide] | ≤ 100 |
